# Assay results: PMC6196722 (Xenobiotica; the fate of foreign compounds in biological …, 2017)
# Key:
# [1] = molecular target: SULT1B1-WT (6xHis tagged) (Homo sapiens, UniProt O43704, L145V); assay: intrinsic fluorescence titration; format: binding
# [2] = molecular target: SULT1B1-WT (6xHis tagged) (Homo sapiens, UniProt O43704); assay: intrinsic fluorescence titration; format: binding
# Chain of SULT1B1-WT (6xHis tagged) (Homo sapiens, UniProt O43704) (O43704 whole entry): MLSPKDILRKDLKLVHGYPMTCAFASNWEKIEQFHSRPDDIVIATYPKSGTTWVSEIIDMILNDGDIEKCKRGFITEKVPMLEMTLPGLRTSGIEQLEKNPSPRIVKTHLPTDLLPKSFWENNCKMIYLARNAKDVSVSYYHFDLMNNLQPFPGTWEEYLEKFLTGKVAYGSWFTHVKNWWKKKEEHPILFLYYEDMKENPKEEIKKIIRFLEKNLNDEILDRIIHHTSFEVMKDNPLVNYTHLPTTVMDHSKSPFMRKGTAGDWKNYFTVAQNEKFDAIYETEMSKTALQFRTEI
# Chain of SULT1B1-WT (6xHis tagged) (Homo sapiens, UniProt O43704, L145V) (O43704 whole entry L145V): as the sequence (O43704 whole entry) above, with L145V counted along it
SMILES,Kd [1],Kd [2]
Nc1ncnc2c1ncn2[C@@H]1O[C@H](COP(=O)(O)OS(=O)(=O)O)[C@@H](OP(=O)(O)O)[C@H]1O [PAPS],980 nM,872 nM
Nc1ncnc2c1ncn2[C@@H]1O[C@H](COP(=O)(O)O)[C@@H](OP(=O)(O)O)[C@H]1O [PAP],405 nM,–
